Where two headings read alike, the source gives them in different places.
Key:
Assay type in all cases: binding
[1] = target: T1, HeLa cell extract proteins (Homo sapiens, UniProt P05165)
T1 construct: endogenous in cells; host or cells: HeLa cell extract
T1 sequence (P05165 53-728): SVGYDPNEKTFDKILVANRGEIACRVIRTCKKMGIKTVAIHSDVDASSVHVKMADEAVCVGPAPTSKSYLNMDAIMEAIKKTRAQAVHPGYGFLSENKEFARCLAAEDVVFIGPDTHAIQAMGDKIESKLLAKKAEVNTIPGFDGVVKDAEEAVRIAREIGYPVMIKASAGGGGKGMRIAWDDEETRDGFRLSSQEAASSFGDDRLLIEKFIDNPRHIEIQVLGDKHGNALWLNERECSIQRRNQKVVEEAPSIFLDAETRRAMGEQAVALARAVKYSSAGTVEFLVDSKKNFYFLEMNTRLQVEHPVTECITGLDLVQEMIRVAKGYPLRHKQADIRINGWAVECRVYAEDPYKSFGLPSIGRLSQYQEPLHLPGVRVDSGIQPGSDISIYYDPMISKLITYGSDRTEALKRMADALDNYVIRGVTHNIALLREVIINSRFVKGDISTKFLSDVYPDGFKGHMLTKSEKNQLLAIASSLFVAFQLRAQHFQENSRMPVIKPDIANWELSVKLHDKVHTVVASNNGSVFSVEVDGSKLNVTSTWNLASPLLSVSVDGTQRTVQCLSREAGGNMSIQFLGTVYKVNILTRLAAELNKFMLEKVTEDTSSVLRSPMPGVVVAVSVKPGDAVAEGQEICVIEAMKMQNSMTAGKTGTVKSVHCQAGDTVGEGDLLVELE

[2] = target: T2, HeLa cell extract proteins (Homo sapiens, UniProt P81605)
T2 construct: endogenous in cells; host or cells: HeLa cell extract
T2 sequence (P81605 20-110): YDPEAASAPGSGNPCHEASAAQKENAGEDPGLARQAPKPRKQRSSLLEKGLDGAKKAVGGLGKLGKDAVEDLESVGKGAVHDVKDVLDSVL

[3] = target: T3, HeLa cell extract proteins (Homo sapiens, UniProt P31689)
T3 construct: endogenous in cells; host or cells: HeLa cell extract
T3 sequence (P31689 whole entry): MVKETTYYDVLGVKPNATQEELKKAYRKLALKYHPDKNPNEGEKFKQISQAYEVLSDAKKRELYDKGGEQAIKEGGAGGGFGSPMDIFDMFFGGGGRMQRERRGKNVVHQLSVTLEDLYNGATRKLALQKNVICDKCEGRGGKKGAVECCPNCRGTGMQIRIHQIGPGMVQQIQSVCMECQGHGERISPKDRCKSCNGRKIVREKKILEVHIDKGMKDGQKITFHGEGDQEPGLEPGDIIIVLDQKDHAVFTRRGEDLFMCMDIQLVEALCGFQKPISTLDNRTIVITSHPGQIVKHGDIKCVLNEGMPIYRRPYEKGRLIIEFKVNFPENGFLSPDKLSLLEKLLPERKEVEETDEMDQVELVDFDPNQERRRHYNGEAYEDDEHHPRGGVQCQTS

[4] = target: T4, HeLa cell extract proteins (Homo sapiens, UniProt P27708)
T4 construct: endogenous in cells; host or cells: HeLa cell extract
T4 sequence (P27708 whole entry): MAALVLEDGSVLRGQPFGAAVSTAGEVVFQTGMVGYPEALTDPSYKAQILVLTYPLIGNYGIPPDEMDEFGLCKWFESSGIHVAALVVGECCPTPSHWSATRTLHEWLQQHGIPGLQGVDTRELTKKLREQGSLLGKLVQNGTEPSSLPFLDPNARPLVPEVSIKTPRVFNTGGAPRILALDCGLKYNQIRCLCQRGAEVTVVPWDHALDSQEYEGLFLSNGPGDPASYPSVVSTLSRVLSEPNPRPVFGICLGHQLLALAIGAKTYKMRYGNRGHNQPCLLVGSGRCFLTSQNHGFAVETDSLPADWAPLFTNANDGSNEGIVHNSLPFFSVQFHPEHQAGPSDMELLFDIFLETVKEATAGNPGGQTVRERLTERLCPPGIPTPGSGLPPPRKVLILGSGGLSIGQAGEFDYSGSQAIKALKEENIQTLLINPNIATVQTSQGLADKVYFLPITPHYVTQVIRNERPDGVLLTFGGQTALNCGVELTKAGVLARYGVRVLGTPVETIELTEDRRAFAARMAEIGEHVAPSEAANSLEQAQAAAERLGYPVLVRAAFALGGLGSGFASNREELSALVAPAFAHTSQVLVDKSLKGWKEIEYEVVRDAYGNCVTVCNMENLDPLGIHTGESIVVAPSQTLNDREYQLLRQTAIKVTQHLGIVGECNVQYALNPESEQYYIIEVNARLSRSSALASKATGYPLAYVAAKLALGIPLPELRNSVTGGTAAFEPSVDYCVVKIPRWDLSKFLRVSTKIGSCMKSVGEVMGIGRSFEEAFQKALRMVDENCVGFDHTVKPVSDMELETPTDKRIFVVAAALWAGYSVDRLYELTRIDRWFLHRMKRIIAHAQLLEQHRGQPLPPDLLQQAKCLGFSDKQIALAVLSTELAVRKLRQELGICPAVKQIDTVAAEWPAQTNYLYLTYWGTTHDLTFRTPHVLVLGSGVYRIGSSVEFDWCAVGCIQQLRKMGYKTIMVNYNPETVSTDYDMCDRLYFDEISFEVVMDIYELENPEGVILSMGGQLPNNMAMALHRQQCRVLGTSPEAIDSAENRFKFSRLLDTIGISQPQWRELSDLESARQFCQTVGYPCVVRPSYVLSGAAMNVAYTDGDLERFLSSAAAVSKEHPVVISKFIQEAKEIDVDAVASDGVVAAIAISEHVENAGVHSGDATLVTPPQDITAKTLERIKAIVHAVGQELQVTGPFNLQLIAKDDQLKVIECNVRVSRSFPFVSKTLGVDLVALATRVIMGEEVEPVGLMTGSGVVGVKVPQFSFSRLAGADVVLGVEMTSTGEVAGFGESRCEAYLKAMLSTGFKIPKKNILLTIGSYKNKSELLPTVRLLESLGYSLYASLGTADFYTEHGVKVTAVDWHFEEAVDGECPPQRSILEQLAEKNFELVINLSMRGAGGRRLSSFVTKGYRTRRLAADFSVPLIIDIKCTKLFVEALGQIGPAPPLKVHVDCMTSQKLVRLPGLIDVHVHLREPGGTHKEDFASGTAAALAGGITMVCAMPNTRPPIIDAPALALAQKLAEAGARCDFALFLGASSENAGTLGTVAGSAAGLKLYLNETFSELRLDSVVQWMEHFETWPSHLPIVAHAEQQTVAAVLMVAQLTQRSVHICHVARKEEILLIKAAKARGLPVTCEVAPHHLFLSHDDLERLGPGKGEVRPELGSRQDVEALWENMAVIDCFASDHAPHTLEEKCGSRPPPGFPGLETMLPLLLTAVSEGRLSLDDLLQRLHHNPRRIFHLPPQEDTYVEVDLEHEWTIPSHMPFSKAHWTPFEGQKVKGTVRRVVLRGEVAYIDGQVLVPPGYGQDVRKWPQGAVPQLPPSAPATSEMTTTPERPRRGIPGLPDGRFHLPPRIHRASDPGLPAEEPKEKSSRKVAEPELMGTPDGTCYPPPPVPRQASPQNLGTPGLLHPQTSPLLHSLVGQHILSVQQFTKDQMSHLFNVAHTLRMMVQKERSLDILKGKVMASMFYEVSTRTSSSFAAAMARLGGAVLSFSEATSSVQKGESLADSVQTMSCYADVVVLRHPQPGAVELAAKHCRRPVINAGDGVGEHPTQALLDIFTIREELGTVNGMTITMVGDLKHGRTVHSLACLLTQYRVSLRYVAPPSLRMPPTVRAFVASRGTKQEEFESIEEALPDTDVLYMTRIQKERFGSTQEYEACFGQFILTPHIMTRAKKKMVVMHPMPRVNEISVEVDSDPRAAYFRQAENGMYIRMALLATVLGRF

[5] = target: T5, HeLa cell extract proteins (Homo sapiens, UniProt O14744)
T5 construct: endogenous in cells; host or cells: HeLa cell extract

[6] = target: T6, HeLa cell extract proteins (Homo sapiens, UniProt P61019)
T6 construct: endogenous in cells; host or cells: HeLa cell extract
T6 sequence (P61019 whole entry): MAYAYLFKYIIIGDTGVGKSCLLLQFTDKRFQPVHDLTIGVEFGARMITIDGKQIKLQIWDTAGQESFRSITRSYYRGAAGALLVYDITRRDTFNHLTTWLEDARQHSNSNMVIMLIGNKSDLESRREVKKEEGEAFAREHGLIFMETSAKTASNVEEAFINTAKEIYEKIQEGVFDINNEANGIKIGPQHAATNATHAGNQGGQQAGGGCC

[7] = target: T7, HeLa cell extract proteins (Homo sapiens, UniProt Q00325)
T7 construct: endogenous in cells; host or cells: HeLa cell extract
T7 sequence (Q00325 50-362): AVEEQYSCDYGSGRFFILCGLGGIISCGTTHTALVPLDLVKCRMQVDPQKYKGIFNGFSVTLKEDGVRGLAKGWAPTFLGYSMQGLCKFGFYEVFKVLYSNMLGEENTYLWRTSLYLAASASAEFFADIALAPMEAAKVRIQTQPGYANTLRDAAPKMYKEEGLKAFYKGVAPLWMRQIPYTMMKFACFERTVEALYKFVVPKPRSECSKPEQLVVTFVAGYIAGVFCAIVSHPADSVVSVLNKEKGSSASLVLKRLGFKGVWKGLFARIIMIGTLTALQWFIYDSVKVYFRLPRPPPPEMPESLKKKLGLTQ

[8] = target: T8, HeLa cell extract proteins (Homo sapiens, UniProt P06733)
T8 construct: endogenous in cells; host or cells: HeLa cell extract
T8 sequence (P06733 whole entry): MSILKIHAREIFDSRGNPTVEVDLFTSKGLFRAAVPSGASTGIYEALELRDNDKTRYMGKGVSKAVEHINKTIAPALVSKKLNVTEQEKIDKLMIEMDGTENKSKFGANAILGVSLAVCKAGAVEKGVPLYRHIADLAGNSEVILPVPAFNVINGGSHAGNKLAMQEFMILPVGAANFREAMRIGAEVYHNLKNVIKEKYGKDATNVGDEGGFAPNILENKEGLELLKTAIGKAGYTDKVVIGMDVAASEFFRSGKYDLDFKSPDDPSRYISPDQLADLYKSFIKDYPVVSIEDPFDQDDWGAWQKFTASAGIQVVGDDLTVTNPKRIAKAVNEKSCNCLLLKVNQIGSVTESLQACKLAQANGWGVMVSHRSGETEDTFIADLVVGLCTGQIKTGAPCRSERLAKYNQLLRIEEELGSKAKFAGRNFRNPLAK

[9] = target: T9, HeLa cell extract proteins (Homo sapiens, UniProt Q9UHI6)
T9 construct: endogenous in cells; host or cells: HeLa cell extract
T9 sequence (Q9UHI6 1-824): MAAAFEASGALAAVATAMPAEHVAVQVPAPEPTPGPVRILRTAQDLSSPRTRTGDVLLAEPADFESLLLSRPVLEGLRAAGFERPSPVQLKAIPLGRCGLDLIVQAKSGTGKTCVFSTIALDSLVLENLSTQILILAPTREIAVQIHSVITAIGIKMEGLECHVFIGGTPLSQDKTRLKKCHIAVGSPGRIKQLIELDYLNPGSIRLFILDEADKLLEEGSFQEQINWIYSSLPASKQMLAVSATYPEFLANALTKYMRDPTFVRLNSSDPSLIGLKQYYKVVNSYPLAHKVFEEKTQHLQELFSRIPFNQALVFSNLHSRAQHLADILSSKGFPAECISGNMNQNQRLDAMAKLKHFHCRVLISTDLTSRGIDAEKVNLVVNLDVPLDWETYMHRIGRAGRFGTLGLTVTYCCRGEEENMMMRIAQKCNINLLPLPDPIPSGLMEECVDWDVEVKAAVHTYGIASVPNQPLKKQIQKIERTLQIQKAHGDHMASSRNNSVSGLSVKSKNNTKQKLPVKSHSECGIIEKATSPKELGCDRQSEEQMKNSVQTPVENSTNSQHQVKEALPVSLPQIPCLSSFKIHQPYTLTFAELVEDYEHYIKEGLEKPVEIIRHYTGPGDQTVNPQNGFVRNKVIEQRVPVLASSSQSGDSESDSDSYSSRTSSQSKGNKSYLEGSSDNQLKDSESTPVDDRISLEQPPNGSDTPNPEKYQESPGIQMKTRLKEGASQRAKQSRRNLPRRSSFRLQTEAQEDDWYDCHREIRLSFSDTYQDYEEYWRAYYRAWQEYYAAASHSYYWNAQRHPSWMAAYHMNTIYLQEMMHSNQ

[10] = target: T10, HeLa cell extract proteins (Homo sapiens, UniProt Q9H2U2)
T10 construct: endogenous in cells; host or cells: HeLa cell extract
T10 sequence (Q9H2U2 33-334): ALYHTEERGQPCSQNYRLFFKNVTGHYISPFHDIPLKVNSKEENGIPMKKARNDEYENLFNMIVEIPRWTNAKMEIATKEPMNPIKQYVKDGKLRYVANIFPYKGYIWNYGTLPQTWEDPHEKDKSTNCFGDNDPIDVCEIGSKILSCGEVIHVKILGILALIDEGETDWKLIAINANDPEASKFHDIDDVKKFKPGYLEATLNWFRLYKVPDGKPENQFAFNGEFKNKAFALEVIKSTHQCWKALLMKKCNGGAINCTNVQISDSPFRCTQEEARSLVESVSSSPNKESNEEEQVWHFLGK

[11] = target: T11, HeLa cell extract proteins (Homo sapiens, UniProt P31040)
T11 construct: endogenous in cells; host or cells: HeLa cell extract
T11 sequence (P31040 43-664): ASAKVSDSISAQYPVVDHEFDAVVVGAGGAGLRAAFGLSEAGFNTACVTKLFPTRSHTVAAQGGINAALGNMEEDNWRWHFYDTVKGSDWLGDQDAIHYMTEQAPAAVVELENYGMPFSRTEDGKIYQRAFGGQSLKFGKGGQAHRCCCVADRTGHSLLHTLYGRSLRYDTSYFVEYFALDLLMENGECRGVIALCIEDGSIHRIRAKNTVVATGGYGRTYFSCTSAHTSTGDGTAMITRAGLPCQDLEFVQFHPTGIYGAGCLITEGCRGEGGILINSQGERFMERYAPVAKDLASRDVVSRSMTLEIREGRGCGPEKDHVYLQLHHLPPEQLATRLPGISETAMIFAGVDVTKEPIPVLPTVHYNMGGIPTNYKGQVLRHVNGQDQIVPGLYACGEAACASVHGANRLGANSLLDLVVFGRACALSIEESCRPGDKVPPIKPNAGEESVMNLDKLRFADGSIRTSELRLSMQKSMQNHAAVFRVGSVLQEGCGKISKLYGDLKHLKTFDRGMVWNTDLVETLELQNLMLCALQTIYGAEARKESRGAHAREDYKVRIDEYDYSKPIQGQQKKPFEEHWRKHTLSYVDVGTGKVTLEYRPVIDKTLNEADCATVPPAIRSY

[12] = target: T12, HeLa cell extract proteins (Homo sapiens, UniProt Q13200)
T12 construct: endogenous in cells; host or cells: HeLa cell extract
T12 sequence (Q13200 whole entry): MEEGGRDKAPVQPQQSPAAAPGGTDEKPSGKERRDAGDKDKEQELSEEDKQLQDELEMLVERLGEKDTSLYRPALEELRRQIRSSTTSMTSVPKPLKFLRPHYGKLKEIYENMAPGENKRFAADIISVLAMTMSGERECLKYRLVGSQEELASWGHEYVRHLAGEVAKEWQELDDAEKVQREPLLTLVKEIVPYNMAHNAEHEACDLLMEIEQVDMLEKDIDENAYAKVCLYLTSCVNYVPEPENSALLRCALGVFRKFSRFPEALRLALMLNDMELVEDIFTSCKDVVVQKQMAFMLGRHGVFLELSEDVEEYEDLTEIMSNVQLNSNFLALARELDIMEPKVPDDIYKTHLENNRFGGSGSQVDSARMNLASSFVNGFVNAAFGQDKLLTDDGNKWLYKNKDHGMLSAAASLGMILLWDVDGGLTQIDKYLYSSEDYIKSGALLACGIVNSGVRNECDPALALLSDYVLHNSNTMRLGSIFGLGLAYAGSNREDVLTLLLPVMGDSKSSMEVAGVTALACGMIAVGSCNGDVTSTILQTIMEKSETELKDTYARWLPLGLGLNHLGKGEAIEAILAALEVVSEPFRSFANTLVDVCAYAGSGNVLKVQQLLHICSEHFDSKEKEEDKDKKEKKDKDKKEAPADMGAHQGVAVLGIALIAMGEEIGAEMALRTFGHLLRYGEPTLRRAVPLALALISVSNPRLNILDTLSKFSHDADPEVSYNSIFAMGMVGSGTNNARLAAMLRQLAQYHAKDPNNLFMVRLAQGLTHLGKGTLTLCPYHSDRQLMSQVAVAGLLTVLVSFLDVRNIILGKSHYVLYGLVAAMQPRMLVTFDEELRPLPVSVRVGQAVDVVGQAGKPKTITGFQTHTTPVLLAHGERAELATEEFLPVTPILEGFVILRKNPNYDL

[13] = HeLa, protein PCCA (80 KDA PROTEIN)
[14] = HeLa, protein ENO1 (ISOFORM ALPHA-ENOLASE OF ALPHA-ENOLASE.)

Row | Compound | fold changes relative to vehicle control [1, 13] | fold changes relative to vehicle control ([2]; protein DCD, HeLa) | fold changes relative to vehicle control ([3]; HeLa, protein DNAJA1) | fold changes relative to vehicle control ([4]; protein CAD, HeLa) | fold changes relative to vehicle control ([5]; protein PRMT5, HeLa) | fold changes relative to vehicle control ([6]; HeLa, protein RAB2A) | fold changes relative to vehicle control ([7]; HeLa, protein SLC25A3) | fold changes relative to vehicle control ([8]; HeLa, protein ENO1) | fold changes relative to vehicle control ([9]; HeLa, protein DDX20) | fold changes relative to vehicle control ([10]; HeLa, protein PPA2) | fold changes relative to vehicle control ([11]; HeLa, captured protein SDHA) | fold changes relative to vehicle control ([12]; protein PSMD2, HeLa) | fold changes relative to vehicle control ([1]; captured protein PCCA, HeLa) | fold changes relative to vehicle control ([4]; captured protein CAD, HeLa) | fold changes relative to vehicle control ([6]; captured protein RAB2A, HeLa) | fold changes relative to vehicle control [8, 14] | fold changes relative to vehicle control ([9]; captured protein DDX20, HeLa) | fold changes relative to vehicle control ([10]; protein PPA2, HeLa) | fold changes relative to vehicle control ([11]; protein SDHA, HeLa) | also measured
1 | Nc1nc2c(c(=O)[nH]1)N(C=O)C(CNc1ccc(C(=O)N[C@@H](CCC(=O)O)C(=O)O)cc1)CN2 (stereo partly drawn) [LEU, leucovorin] | 1.07 | 0.78 | 0.99 | 1.34 | 0.96 | 0.85 | 0.98 | 1.07 | 0.93 | 1.16 | 1 | 0.84 | – | – | – | – | – | – | – | –
2 | Nc1nc2[nH]cc(CCc3ccc(C(=O)N[C@@H](CCC(=O)O)C(=O)O)cc3)c2c(=O)[nH]1 [PTX, pemetrexed] | – | – | – | – | – | – | – | – | – | – | – | – | – | – | – | – | – | – | – | fold changes relative to vehicle control [1]: 0.21; fold changes relative to vehicle control [2]: 1.53; fold changes relative to vehicle control [3]: 0.93; fold changes relative to vehicle control [4]: 0.52; fold changes relative to vehicle control [5]: 0.99; fold changes relative to vehicle control [6]: 0.93; fold changes relative to vehicle control [7]: 0.98; fold changes relative to vehicle control [8]: 1.14; fold changes relative to vehicle control [9]: 0.97; fold changes relative to vehicle control [10]: 1.05; fold changes relative to vehicle control [11]: 0.97; fold changes relative to vehicle control [12]: 0.83
3 | CCCCCCOc1ccc(Cc2cnc(N)nc2N)cc1 [compound 1] | – | 9.15 | 1.07 | – | 0.93 | – | 0.98 | – | – | – | – | 0.98 | 1.07 | 1.1 | 0.64 | 1.47 fold | 0.89 | 1.04 | 1.19 | –
4 | CCCCCCOc1cccc(Cc2cnc(N)nc2N)c1 [compound 2] | – | 1.52 | 1.11 | – | 1.12 | – | 0.96 | – | – | – | – | 1.41 | 0.99 | 1.01 | 1.09 | 2.6 fold | 1 | 1.59 | 1.2 | –
5 | Nc1nc2cccc(-c3ccccc3)c2n1Cc1ccc(Cl)c(Cl)c1 [compound 3] | – | 1.26 | 0.92 | – | 0.85 | – | 1 | – | – | – | – | 1.01 | 1.01 | 1.14 | 0.83 | 0.84 fold | 0.92 | 0.97 | 1.02 | –
6 | NCCOCCOCC(=O)Nc1nc2ncc(CNc3ccc(C(=O)NC(CCC(=O)O)C(=O)O)cc3)nc2c(=O)[nH]1 (stereo not drawn) [compound 6] | 0.98 | 0.86 | 1.06 | 1.18 | 1.21 | 1.09 | 1.04 | 1.26 | 0.98 | 1.24 | 1.06 | 1.01 | – | – | – | – | – | – | – | –
7 | NCCCNc1ccc(C(=O)NC(CCC(=O)O)C(=O)O)cc1 (stereo not drawn) [compound 7] | 1.04 | 1.23 | 1.15 | 1.3 | 1.05 | 0.94 | 1.11 | 0.9 | 0.94 | 1.02 | 0.92 | 0.99 | – | – | – | – | – | – | – | –

From article PMC6199744, “Development of Chemical Proteomics for the Folateome and Analysis of the Kinetoplastid Folateome” (ACS Infectious Diseases, 2018)
